Each structure is given as a SMILES string. Several values for one entry are separate records, joined by “and”; a condition that tells them apart may be missing. Equal entries are not always repeated. Inconclusive results and toxic doses are left out.

T/C data for 23 molecules are collected here from PubChem BioAssay AID330 (DTP/NCI, 2004).

For the assay, the system named is P388 leukemia ip, CD2F1 mice, survival T/C. The experiment in a line: NCI In Vivo Anticancer Drug Screen. Data for tumor model P388 Leukemia (intraperitoneal) in CD2F1 (CDF1) mice. The conditions noted are these: endpoint: median survival time, higher = longer survival. In outline: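 Mice carrying the transplanted tumor received test compound or vehicle. Survival was recorded in each group, and the value is the treated-group measurement divided by that of the vehicle-treated control group.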

[1] abbreviates: dose: 50.0 mg/kg/injection, schedule: Q01DX009 (ip), vehicle: saline with Tween-80.
The mark [2] stands for this setting: dose: 50.0 mg/kg/injection, schedule: Q01DX005 (ip), vehicle: Klucel (hydroxypropylcellulose) (HPC).
[3] abbreviates: dose: 100.0 mg/kg/injection, schedule: Q01DX005 (ip), vehicle: Klucel (hydroxypropylcellulose) (HPC).
Setting [4] is: dose: 200.0 mg/kg/injection, schedule: Q01DX005 (ip), vehicle: Klucel (hydroxypropylcellulose) (HPC).
Setting [5] is: dose: 50.0 mg/kg/injection, schedule: Q01DX005 (ip), vehicle: saline.
The mark [6] stands for this setting: dose: 100.0 mg/kg/injection, schedule: Q01DX005 (ip), vehicle: saline.
[7] abbreviates: dose: 200.0 mg/kg/injection, schedule: Q01DX005 (ip), vehicle: saline.
Where [8] appears, read: dose: 50.0 mg/kg/injection, schedule: Q01DX009 (ip), vehicle: Klucel (hydroxypropylcellulose) (HPC).
Where [9] appears, read: dose: 100.0 mg/kg/injection, schedule: Q01DX009 (ip), vehicle: Klucel (hydroxypropylcellulose) (HPC).
The mark [10] stands for this setting: dose: 100.0 mg/kg/injection, schedule: Q01DX009 (ip), vehicle: saline with Tween-80.
The mark [11] stands for this setting: dose: 200.0 mg/kg/injection, schedule: Q01DX009 (ip), vehicle: Klucel (hydroxypropylcellulose) (HPC).
The mark [12] stands for this setting: dose: 200.0 mg/kg/injection, schedule: Q01DX009 (ip), vehicle: saline with Tween-80.
Where [13] appears, read: dose: 400.0 mg/kg/injection, schedule: Q01DX009 (ip), vehicle: saline with Tween-80.
[14] abbreviates: dose: 100.0 mg/kg/injection, schedule: Q04DX003 (ip), vehicle: saline with Tween-80.
[15] abbreviates: dose: 200.0 mg/kg/injection, schedule: Q04DX003 (ip), vehicle: saline with Tween-80.
Setting [16] is: dose: 400.0 mg/kg/injection, schedule: Q04DX003 (ip), vehicle: saline with Tween-80.

As to `CC(c1ccccc1)C(OC(=O)c1ccc([N+](=O)[O-])cc1)c1ccccc1` (centres undefined), the T/C is 100 % of control (dose: 12.5 mg/kg/injection, schedule: Q01DX009 (ip), vehicle: saline with Tween-80); 100 % of control (dose: 25.0 mg/kg/injection, schedule: Q01DX009 (ip), vehicle: saline with Tween-80); 90 % of control under setting [1].
With `CC1CCCC2=C1C(O)c1cccc(N)c1C2O` (centres undefined), the T/C is 102 % of control under setting [2], 96 % of control under setting [3] and 88 % of control under setting [4].
With `CCCCCC(=O)/C=C/C1=C(N2CCCC2)CN(C(=O)OCC)C1`, the T/C by setting is: (dose: 60.0 mg/kg/injection, schedule: Q01DX005 (ip), vehicle: Klucel (hydroxypropylcellulose) (HPC)) 86 % of control; (dose: 120.0 mg/kg/injection, schedule: Q01DX005 (ip), vehicle: Klucel (hydroxypropylcellulose) (HPC)) 89 % of control; (dose: 240.0 mg/kg/injection, schedule: Q01DX005 (ip), vehicle: Klucel (hydroxypropylcellulose) (HPC)) 91 % of control.
For the molecule `COc1c(C)n(CCO)ccc1=O`, the T/C reads like this: under setting [5], 102 % of control and 104 % of control; under setting [6], 99 % of control and 100 % of control; under setting [7], 99 % of control and 100 % of control; (dose: 400.0 mg/kg/injection, schedule: Q01DX005 (ip), vehicle: saline) 99 % of control and 103 % of control.
Regarding `C1=CC(=C(c2ccccc2)c2ccccc2)C=C1`, the T/C is, setting by setting: under setting [8], 98 % of control; under setting [1], 107 % of control; under setting [9], 100 % of control; under setting [10], 104 % of control; under setting [11], 101 % of control; under setting [12], 102 % of control. Moreover, under setting [13], the T/C was 102 % of control.
Consider `O=C(O)c1cc(=O)n(CCCCCCn2c(=O)cc(C(=O)O)[nH]c2=O)c(=O)[nH]1`, for which the T/C by setting is: under setting [1], 98 % of control; under setting [10], 104 % of control; under setting [12], 111 % of control.
As for `CC[C@H]1OC(=O)[C@H](C)[C@@H](OC2CC(C)(OC)C(O)C(C)O2)[C@H](C)[C@@H](OC2OC(C)CC(N(C)C)C2OC(=O)CCC2CCCC2)[C@](C)(O)C[C@@H](C)C(=O)[C@H](C)[C@@H](O)[C@]1(C)O` (some centres undefined), the T/C under setting [2] is 96 % of control, the T/C under setting [3] was 100 % of control and the T/C under setting [4] is 93 % of control.
For the molecule `Cn1cc2c(cc1=O)-c1nc3ccccc3c3ccnc(c13)C2=O`, the T/C by setting is: (dose: 1.25 mg/kg/injection, schedule: Q01DX005 (ip), vehicle: other) 96 % of control; (dose: 2.5 mg/kg/injection, schedule: Q01DX005 (ip), vehicle: other) 97 % of control; (dose: 5.0 mg/kg/injection, schedule: Q01DX005 (ip), vehicle: other) 92 % of control; (dose: 10.0 mg/kg/injection, schedule: Q01DX005 (ip), vehicle: other) 90 % of control.
With `Oc1ccc2ccccc2c1N=Nc1ccc(Cl)cc1`, the T/C is, setting by setting: under setting [14], 100 % of control; under setting [15], 100 % of control; under setting [16], 90 % of control.
For `Nc1ccc(Br)cc1[N+](=O)[O-]`, the T/C runs as follows: under setting [1], 101 % of control; under setting [10], 107 % of control; under setting [12], 100 % of control; under setting [13], 117 % of control.
`O=c1cnn(C2OC(CO)C(O)C2Cl)c(=O)[nH]1` (centres undefined): the T/C runs as follows: (dose: 4.06 mg/kg/injection, schedule: Q01DX009 (ip), vehicle: saline) 99 % of control; (dose: 8.12 mg/kg/injection, schedule: Q01DX009 (ip), vehicle: saline) 108 % of control; (dose: 16.25 mg/kg/injection, schedule: Q01DX009 (ip), vehicle: saline) 101 % of control; (dose: 32.5 mg/kg/injection, schedule: Q01DX009 (ip), vehicle: saline) 101 % of control; (dose: 65.0 mg/kg/injection, schedule: Q01DX009 (ip), vehicle: saline) 106 % of control; (dose: 130.0 mg/kg/injection, schedule: Q01DX009 (ip), vehicle: saline) 102 % of control.
As for `O=C(Oc1ccccc1)N1CCCCC1`, the T/C runs as follows: (dose: 12.5 mg/kg/injection, schedule: Q01DX001 (ip), vehicle: saline with Tween-80) 95 % of control; (dose: 25.0 mg/kg/injection, schedule: Q01DX001 (ip), vehicle: saline with Tween-80) 99 % of control; (dose: 50.0 mg/kg/injection, schedule: Q01DX001 (ip), vehicle: saline with Tween-80) 106 % of control; (dose: 100.0 mg/kg/injection, schedule: Q01DX001 (ip), vehicle: saline with Tween-80) 104 % of control.
As to `O=C(Nc1ccc(S(=O)(=O)F)cc1)c1ccc2ccccc2c1O`, the T/C under setting [8] is 103 % of control, the T/C under setting [9] was 94 % of control and the T/C under setting [11] is 91 % of control.
As to `CCC#CC(=O)O`, the T/C by setting is: (dose: 25.0 mg/kg/injection, schedule: Q01DX009 (ip), vehicle: saline) 96 % of control; (dose: 50.0 mg/kg/injection, schedule: Q01DX009 (ip), vehicle: saline) 95 % of control and 96 % of control.
Take `Nc1cc2nc3ccccc3oc-2cc1=O`: the T/C is 105 % of control under setting [2], 101 % of control under setting [3] and 97 % of control under setting [4].
For `O=NNc1cnc2ccccc2n1`, the T/C is 106 % of control (dose: 3.12 mg/kg/injection, schedule: Q01DX009 (ip), vehicle: water); 103 % of control (dose: 6.25 mg/kg/injection, schedule: Q01DX009 (ip), vehicle: water); 106 % of control and 112 % of control (dose: 12.5 mg/kg/injection, schedule: Q01DX009 (ip), vehicle: water); 120 % of control and 121 % of control (dose: 25.0 mg/kg/injection, schedule: Q01DX009 (ip), vehicle: water); 113 % of control and 87 % of control (dose: 50.0 mg/kg/injection, schedule: Q01DX009 (ip), vehicle: water).
On to `CSc1nc(C)c(Br)c(N2CC2)n1`, for which the T/C by setting is: (dose: 3.12 mg/kg/injection, schedule: Q01DX005 (ip), vehicle: Klucel (hydroxypropylcellulose) (HPC)) 89 % of control; (dose: 6.25 mg/kg/injection, schedule: Q01DX005 (ip), vehicle: Klucel (hydroxypropylcellulose) (HPC)) 110 % of control and 94 % of control; (dose: 12.5 mg/kg/injection, schedule: Q01DX005 (ip), vehicle: Klucel (hydroxypropylcellulose) (HPC)) 99 % of control and 110 % of control; (dose: 25.0 mg/kg/injection, schedule: Q01DX005 (ip), vehicle: Klucel (hydroxypropylcellulose) (HPC)) 120 % of control and 89 % of control and 97 % of control; under setting [2], 101 % of control and 102 % of control; under setting [3], 105 % of control.
Take `Nc1ccc2c(c1)CC1CC(=O)NN=C21` (centres undefined): the T/C reads like this: (dose: 60.0 mg/kg/injection, schedule: Q01DX005 (ip), vehicle: saline) 98 % of control; (dose: 120.0 mg/kg/injection, schedule: Q01DX005 (ip), vehicle: saline) 92 % of control; (dose: 240.0 mg/kg/injection, schedule: Q01DX005 (ip), vehicle: saline) 98 % of control.
As for `CN1CCC/C1=C/C(=O)c1cccc([N+](=O)[O-])c1`, the T/C was 108 % of control (dose: 100.0 mg/kg/injection, schedule: Q04DX003 (ip), vehicle: Klucel (hydroxypropylcellulose) (HPC)) and 106 % of control (dose: 200.0 mg/kg/injection, schedule: Q04DX003 (ip), vehicle: Klucel (hydroxypropylcellulose) (HPC)).
As to `CC(C)(C)C(N)=S`, the T/C under setting [5] was 103 % of control, the T/C under setting [6] was 101 % of control and the T/C under setting [7] is 101 % of control.
On to `CC(=O)OCC(=O)[C@@]1(O)CC[C@H]2[C@@H]3C[C@H](C)C4=CC(=O)CC[C@]4(C)[C@H]3[C@@H](O)C[C@@]21C`, for which the T/C runs as follows: under setting [14], 112 % of control; under setting [15], 108 % of control; under setting [16], 95 % of control.
For `NC(=O)Nc1cc(NC(N)=O)cc(N(CCCl)CCCl)c1`, the T/C is, setting by setting: (dose: 17.8 mg/kg/injection, schedule: Q04DX003 (ip), vehicle: water) 177 % of control; (dose: 20.0 mg/kg/injection, schedule: Q04DX003 (ip), vehicle: water) 173 % of control; (dose: 26.6 mg/kg/injection, schedule: Q04DX003 (ip), vehicle: water) 206 % of control; (dose: 40.0 mg/kg/injection, schedule: Q04DX003 (ip), vehicle: water) 194 % of control and 215 % of control.
With `COC1(OC)C(=S)N(C(C)C)C(=S)N1C(C)C`, the T/C was 100 % of control under setting [2], 96 % of control under setting [3] and 100 % of control under setting [4].
